Experimental data reported in US10030039B2, “Anti-cancer agent and cancer cell killing method” (IHI Corporation, priority 2014, dated 2018).

System: cancer cell line (MDA-MB-231) for triple-negative breast cancer
Experiment: Cancer Cell Killing Effect Assay 5 (XTT assay)
Assay type: cell-based
Conditions: MDA-MB-231, 24 hours, 37° C., 5% CO2; 3.750 and 7.500 μM; FIG. 6
Procedure: Cancer Cell Line: Cancer Cell Line (MDA-MB-231) (the G0 Phase) for Triple-Negative Breast Cancer XTT cell proliferation assay kit (manufactured by ATCC) The XTT labeled liquid mixture was adjusted by mixing the XTT reagent (5 ml) and an activation solution (0.1 ml). The cell proliferation assay was conducted in accordance with ATCC's experiment protocol. […] The cancer cell line for the triple-negative breast cancer was cultured by the same method as that of Example 4. RPMI-1640, 10% inactivated bovine serum (GIBCO, USA), and 100 units/ml of penicillin-streptomycin were added to each well (100 μl) of the microplate (for cell proliferation and with 96 holes and a flat bottom) and 3×10^5 cultured cells were seeded. […] The XTT assay was performed by the same method as that of Example 4. The cell survival rate was calculated on the basis of the results of the absorbance measurement and by the method explained in [Cancer Cell Killing Effect Assay 3].

CC(=O)O[C@H]1C(=O)[C@@]2(C)[C@H]([C@H](OC(=O)c3ccccc3)[C@]3(O)C[C@H](OC(=O)[C@H](O)[C@@H](NC(=O)c4ccccc4)c4ccccc4)C(C)=C1C3(C)C)[C@]1(OC(C)=O)CO[C@@H]1C[C@@H]2O [paclitaxel]
concentration dependence of reduction of cell survival rate / cell killing effect: concentration-dependent up to a specified concentration
